Results on one molecule are retold here after patent publication US12171779B2, “Regulated drug delivery via controlled degradable chondroitin sulfate particles” (UNIVERSITY OF SOUTH FLORIDA, priority 2021, dated 2024).

Each structure is given as a SMILES string.

Test [1] can be described thus: Total phenolic content by Folin-Ciocalteau (FC) method. The conditions noted are these: 1000 μg/mL concentration. Here is the method: Total phenolic content of the particles was evaluated by Folin-Ciocalteau (FC) method. Briefly, 0.1 mL of 1 mg/mL microgel suspensions were reacted with 1.25 mL of 0.2 N solution of FC phenol reagent for 4 min. Next, 1 mL of 0.7 M sodium bicarbonate solution was added to this mixture and kept in the dark for 2 hours. Then, the total phenol content of the microgels was measured by using a UV/Vis spectrophotometer (T80+PG Instrument) at 760 nm. The antioxidant activity of the microgels was expressed as μg/mL gallic acid equivalent. The analysis was repeated three times, and the values are reported as the average values with standard deviations.

For test [2] the following is noted: cited from earlier work.

`O=C(/C=C/c1ccc(O)c(O)c1)O[C@H](Cc1ccc(O)c(O)c1)C(=O)O` [RA, Rosmarinic acid]: the “Total phenol content (TPC), gallic acid equivalent” value in test [1] is recorded as 556±35 μg/mL gallic acid equivalent. In addition, the “IC50 (50% inhibition of DPPH radical)” value in test [2] is 1.3 ± 0.1 µg/mL.
